According to PMC4552634, “A New Set of Chemical Starting Points with Plasmodium falciparum Transmission-Blocking Potential for Antimalarial Drug Discovery” (PLoS ONE, 2015):
Like-named read-outs stand apart in the source and are kept apart here.

Experiments:
[1] = test system: P. falciparum asexual stages; conditions: asexual stages; TCAMS data; read-out: IC50 asexual; cited from earlier work
[2] = test system: P. falciparum stage V gametocytes; test: Gametocytocidal ATP bioluminescence assay (single point 5 μM and 1 μM, dose-response); type: cell-based, Plasmodium falciparum; conditions: for Ratio IC50 HepG2/IC50 P. falciparum: IC50 HepG2 divided by IC50 P. falciparum gametocytes; for % Inhibition: 5 μM single concentration, 48 h, decrease of ATP level (S1 Table)
Protocol: Purified stage IV-V gametocytes were obtained as previously described [10]. Single point ATP bioluminescence assay and dose–response of positive hits was determined in accordance with the previously published protocol [10].

[3] = Cytotoxicity in HepG2 cells (intracellular ATP, ATPlite, 48 h); type: cell-based, human; conditions: human, HepG2 cells, IC50 per ratio column head, unit inferred; for IC50 at 48 h: read-out: Cytotoxicity in HepG2
HepG2 cells = test: as above; type: cell-based, human; conditions: for Ratio IC50 HepG2/IC50 P. falciparum: IC50 HepG2 divided by IC50 P. falciparum gametocytes; for IC50: HepG2 cells, IC50 per ratio column head, unit inferred
[4] = test system: P. falciparum stage V gametocytes; test: microbe, parasite or virus in culture; parameters: BacTiter-Glo ATP luminescence viability of purified stage V gametocytes in 384-well plates, per cent inhibition versus DMSO
[5] = Plasmodium falciparum, P. falciparum gametocytes, average, read-out: IC50 Pf Gametocytes average, IC50 (µM) average
[6] = sexual stages (gametocytes), dose-response, read-out: IC50 sexual
[7] = P. falciparum gametocytes, average, read-out: IC50 Pf Gametocytes average, IC50 (µM) average
[8] = Plasmodium falciparum, 48 h, read-out: % Inhibition
[9] = Plasmodium falciparum, read-out: IC50 Pf Gametocytes average, IC50 (µM) average

| Compound | IC50 [1] | Ratio IC50 HepG2/IC50 P. falciparum [2] | IC50 [2, 5] | IC50 at 48 h [3] | inhibition at 5 µM [4, 8] | further results |
| --- | --- | --- | --- | --- | --- | --- |
| COc1ccc2c(c1)CC(C)(C)NC2CCCCCCCCC1NC(C)(C)Cc2cc(OC)ccc21 (centres unmarked) [TCMDC-137935] | 1300 nM | 7 | 0.79 µM | 5320 nM |  |  |
| N=C(N=C(NCCCCCCNC(=NC(=N)Nc1ccc(Cl)cc1)N1CCCCC1)N1CCCCC1)Nc1ccc(Cl)cc1 [TCMDC-131811] | 256 nM | 61 | 0.38 µM | 22900 nM |  | IC50 [2, 6]: 0.375 µM; Ratio IC50 HepG2/IC50 P. falciparum (HepG2 cells): 61 |
| Nc1cc(/C=C/c2ccc([N+](=O)[O-])s2)nc2ccccc12 [TCMDC-142296] | 760 nM | 13 |  |  | 111% | IC50 [2, 7]: 0.6 µM; IC50 [2, 6]: 0.595 µM; IC50 (HepG2 cells): 7600 nM |
| C=C[C@H]1CN(CCCCCCC)CC[C@H]1CCNc1ccnc2ccc(OC)cc12 [TCMDC-139204] | 62 nM | 3 | 1.08 µM | 3400 nM |  |  |
| CCCCCCCCN1CCN(CCCCCCNc2c3ccccc3nc3ccccc23)CC1 [TCMDC-138015] | 162 nM | 12 | 0.25 µM | 3100 nM |  |  |
| CC(C)CCNC(=N)Nc1ccc(OCCCCCOc2ccc(NC(=N)NCCC(C)C)cc2)cc1 [TCMDC-137614] | 1080 nM | >49 | 0.51 µM | > 25000 nM |  | IC50 [2, 6]: 0.507 µM; Ratio IC50 HepG2/IC50 P. falciparum (HepG2 cells): >49 |
| Cl.c1ccc2c(Nc3ccc(Cc4ccc(Nc5c6ccccc6nc6ccccc56)cc4)cc3)c3ccccc3nc2c1 [TCMDC-137354] | 162 nM | 2 | 2.3 µM | 4490 nM |  |  |
| CCCCN(CCCC)CCCCNc1c2ccccc2nc2ccccc12 [TCMDC-137461] | 148 nM | 35 | 0.55 µM | 19000 nM |  | Ratio IC50 HepG2/IC50 P. falciparum (HepG2 cells): 35 |
| CC(C)CCNC(=N)Nc1ccc(OCCCOc2ccc(NC(=N)NCCC(C)C)cc2)cc1 [TCMDC-137615] | 200 nM | >86 | 0.29 µM | > 25000 nM |  | Ratio IC50 HepG2/IC50 P. falciparum (HepG2 cells): >86 |
| CC(C)(C)c1ccc(CN2CCC(CNC(=O)c3cc(-c4ccccc4Cl)cs3)C2)cc1 (centres unmarked) [TCMDC-134445] | 856 nM | 12 | 0.69 µM | 8300 nM |  |  |
| COc1ccc2nc3cc(Cl)ccc3c(NCCCCN3CCNCC3)c2c1 [TCMDC-137578] | 183 nM | 7.58 | 0.66 µM | 5000 nM |  |  |
| c1ccc(CN2CCN(CCCCNc3c4ccccc4nc4ccccc34)CC2)cc1 [TCMDC-138009] | 117 nM | 12 | 0.79 µM | 9920 nM |  | IC50 [2, 6]: 0.795 µM |
| O=[N+]([O-])c1cccc(/C=N/Nc2ccnc3cc(F)ccc23)c1 [TCMDC-142098] |  |  |  |  | 42.1% | % Inhibition ([2]; P. falciparum gametocytes): 42% |
| Cl.c1ccc2c(NCCCCCCCCCNc3c4ccccc4nc4ccccc34)c3ccccc3nc2c1 [TCMDC-124286] | 298 nM | 4 |  |  |  | IC50 [2, 9]: 1.5 µM; IC50 [2, 6]: 1.5 µM; IC50 [3]: 6100 nM |
| FC(F)(F)c1ccc2[nH]c(-c3ccc(-c4ccc(CNCCN5CCNCC5)cc4)s3)nc2c1 [TCMDC-132862] | 910 nM | 5.37 |  | 6900 nM |  | IC50 [2, 9]: 1.29 µM; IC50 ([2]; Plasmodium falciparum, read-out: IC50 sexual): 1.28 µM; %_Inh ([2]; gametocytes, primary screen at 5 μM (S10 Table, MCSI analogs)): 105.547% |
| Nc1c(I)cc(C(=O)Nc2ccc3nc4c(c(N)c3c2)CCCC4)cc1I [TCMDC-142289] | 143 nM | 20 |  |  | 108% | IC50 [2, 7]: 0.41 µM; IC50 (HepG2 cells): 8030 nM |
| N=C(NCCCCC1CCCCC1)c1cccc(C(=N)NCCCCC2CCCCC2)n1 [TCMDC-137452] | 395 nM | 7 | 0.22 µM | 1600 nM |  |  |
| COc1cc2nc(NCCCN3CCCCC3)nc(NCc3ccccc3)c2cc1OC [TCMDC-132012] | 998 nM | 30 | 0.3 µM | 8940 nM |  | IC50 [2, 6]: 0.297 µM |
| COc1cccc(-c2csc(C(=O)NCC3CCN(Cc4ccc(C(C)(C)C)cc4)C3)c2)c1 (centres unmarked) [TCMDC-134447] | 1180 nM | 41 | 0.23 µM | 9500 nM |  |  |
| COc1cc2nc(NCc3cccc(CNC(=O)c4ccc(-c5ccc(C(C)=O)cc5)cc4)c3)nc(N)c2cc1OC.O=C(O)C(F)(F)F [TCMDC-138177] | 118 nM | 5 | 2 µM | 9500 nM |  | IC50 [2, 6]: 2 µM |
| Fc1ccc2c(NN=Cc3ccccc3)ccnc2c1 [TCMDC-142100] |  |  |  |  | 16.3% | % Inhibition ([2]; P. falciparum gametocytes): 16% |
| CC(C)c1ccc(CN2CCC(CNC(=O)c3cc(-c4cccc(F)c4)cs3)C2)cc1 (centres unmarked) [TCMDC-134437] | 1660 nM | 12 | 0.45 µM | 5300 nM |  | IC50 [2, 6]: 0.455 µM |
| CC(C)(C)c1ccc(CN2CCC(CNC(=O)c3cc(-c4ccccc4F)cs3)C2)cc1 (centres unmarked) [TCMDC-134443] | 564 nM | 22 | 0.34 µM | 7400 nM |  |  |
| CC(C)(C)c1ccc(CN2CCC(CNC(=O)c3cc(-c4ccccc4C(F)(F)F)cs3)C2)cc1 (centres unmarked) [TCMDC-134441] | 1240 nM | 21 | 0.31 µM | 6400 nM |  | IC50 [2, 6]: 0.305 µM |

| Compound | IC50 [1] | Ratio IC50 HepG2/IC50 P. falciparum [2] | IC50 [2, 5] | IC50 at 48 h [3] | inhibition at 5 µM [4, 8] | further results |
| --- | --- | --- | --- | --- | --- | --- |
| CC(CNC(=N)c1cccc(C(=N)NCC(C)Oc2cccc(C3CCCCC3)c2)n1)Oc1cccc(C2CCCCC2)c1.Cl (centres unmarked) [TCMDC-137455] | 917 nM | 15 | 0.24 µM | 3530 nM |  |  |
| S=C(NN=Cc1ccccn1)Nc1ccc(Cl)c(Cl)c1 [TCMDC-125522] | 768 nM | 130 | 0.07 µM | 9100 nM |  |  |
| COc1ccc(CCNc2nc(NCc3ccccc3)c3cc(OC)c(OC)cc3n2)cc1OC [TCMDC-132017] | 326 nM | 0.818 | 5.6 µM | 4580 nM |  |  |
| Clc1ccc(C=NNc2ccnc3ccccc23)cc1 [TCMDC-142099] |  |  |  |  | -69.1% | % Inhibition ([2]; P. falciparum gametocytes): -69% |
| Fc1ccc2c(NN=Cc3ccc(Cl)cc3)ccnc2c1 [TCMDC-142097] |  |  |  |  | 61.1% | % Inhibition ([2]; P. falciparum gametocytes): 61% |
| COc1cc(NCCCNCc2cn(Cc3cc(Br)cc(Br)c3)c3ccccc23)nc2ccccc12 [TCMDC-140677] | 185 nM | 10 | 0.59 µM | 6130 nM |  |  |
| COc1ccc2c(NN=CC=Cc3ccccc3)cc(C)nc2c1 [TCMDC-142096] |  |  |  |  | 34% | % Inhibition ([2]; P. falciparum gametocytes): 34% |
| CC(C)(C)c1ccc(CN2CCC(CNC(=O)c3cc(-c4cccc(C(F)(F)F)c4)cs3)C2)cc1 (centres unmarked) [TCMDC-134442] | 1030 nM | 12 | 0.42 µM | 4900 nM |  |  |
| CCOc1ccc2c(N/N=C/c3cccc([N+](=O)[O-])c3)cc(C)nc2c1 [TCMDC-142195] |  |  |  |  | 115% |  |
| S=C(NN=Cc1ccccn1)NC1CC2C=CC1C2 (centres unmarked) [TCMDC-125752] | 721 nM | 6 | 0.11 µM | 700 nM |  | IC50 [2, 6]: 0.112 µM |
| Cc1cc(N/N=C/c2ccccc2[N+](=O)[O-])c2cc(F)ccc2n1 [TCMDC-142167] |  |  |  |  | -36.5% |  |
| COc1ccc2nccc(NN=CC=Cc3ccccc3)c2c1 [TCMDC-142143] |  |  |  |  | 39% |  |
| Cc1ccc2c(NN=Cc3ccc(Cl)cc3)cc(C)nc2c1 [TCMDC-142113] |  |  |  |  | 40.7% |  |
| Cc1ccc(C2(O)CC3CCC(C2)N3C)cc1 (centres unmarked) [TCMDC-142260] |  |  |  |  | 10.6% |  |
| O=C(NC1c2ccccc2Oc2ccccc21)c1ccccc1O [TCMDC-142251] |  |  |  |  | 3.63% |  |
| CCCCN(CCCC)Cc1cc(Nc2ccnc3cc(Cl)ccc23)ccc1O [TCMDC-142279] |  |  |  |  | -8.89% |  |
| Fc1ccccc1C=NNc1ccnc2ccccc12 [TCMDC-142101] |  |  |  |  | -64.6% |  |
| CCCCCCC(C)(C)c1cc(O)c2c(c1)OC(C)(C)c1ccncc1-2 [TCMDC-142253] |  |  |  |  |  | inhibition at 5 µM ([4]; Plasmodium falciparum, 48 h; read-out: % Inhibition): 30.7% |
| Cc1cc(N/N=C/c2cccc([N+](=O)[O-])c2)c2cc(F)ccc2n1 [TCMDC-142166] |  |  |  |  | -21.6% |  |
| COc1ccc(CSC2CCCCC23NC(=S)NC3=S)cc1 (centres unmarked) [TCMDC-142273] |  |  |  |  | 5.66% |  |
| Cc1ccccc1Nc1nc(NCCc2ccccc2)nc2ccccc12 [TCMDC-142322] |  |  |  |  | 101% |  |
| CCCCCCc1cc(OC)c(OC)cc1C(C)Nc1ccnc2cc(Cl)ccc12 (centres unmarked) [TCMDC-142247] |  |  |  |  | -55.2% |  |
| Nc1c2c(nc3ccc(C(=O)Nc4cc(I)c(O)c(I)c4)cc13)CCCC2 [TCMDC-142292] |  |  |  |  | -1.08% |  |
| COc1cccc2c(NN=Cc3ccc(Cl)cc3)ccnc12 [TCMDC-142106] |  |  |  |  | -26.4% |  |
